One data set deals with hypoxemic rabbits. To be noted: cited from earlier work.
A short description of data set [1]: Permeation (diffusion) cell: hydrogen peroxide release from UHP/PFC slurry across a flat PLGA membrane. It is filed as physicochemical. To be noted: UHP/PFC slurry below, distilled water above. The text has this: A diffusion cell was constructed in order to measure the release rate of hydrogen peroxide from UHP and its diffusion across a selectively permeable membrane. UHP was dispersed in a PFC liquid and maintained in the bottom half of the cell. Rather than coat the particles, a flat PLGA membrane was used to separate the UHP from distilled water located in the top half of the cell. The PLGA membrane is permeable to water and hydrogen peroxide, but is a very effective barrier to permeation of the PFC. Thus, during the experiment, water diffused across the PLGA membrane and into the PFC/UHP slurry in the bottom half of the cell. Hydrogen peroxide was generated when the water contacted the UHP. The hydrogen peroxide then diffused through the PLGA membrane into the top half of the diffusion cell.
The amount of hydrogen peroxide in the top half of the cell was monitored colorimetrically by testing samples that were periodically removed from the water-rich phase in the top half of the cell. […]

Take `NC(N)=O.OO` [UHP, urea hydrogen peroxide]: the “rise in arterial PO2” value in the data set on hypoxemic rabbits (hypoxemic rabbits, intravenous UHP) was 10 mmHg. For the same molecule, the “outcome at amounts that would supply the oxygen consumption needs of a rabbit” value with hypoxemic rabbits (rabbits, high UHP amounts) is listed as “died of gas emboli”.
In the case of `NC(N)=O` [urea], the “diffusion through the PLGA membrane” value in data set [1] was “did not diffuse through the membrane”.

Values taken from patent US20090169630A1, “Methods and Compositions for Controlled and Sustained Production and Delivery of Peroxides and/or Oxygen for Biological and Industrial Applications” (priority 2006, published 2009).
